Measurements taken from patent US20180207228A1, “PEPTIDE COMBINATIONS AND USES THEREOF FOR TREATING GRASS ALLERGY” (ALK-Abelló A/S, priority 2015, published 2018).
Where no end group is shown, it is not given here.

System: allergen specific T cells
Experiment: T cell proliferation assay (72 h) on donor derived T cell lines (TCL02/TCL03)
Format: cell-based, human
Settings: for Proliferation % donor coverage (TCL-02 DK1): T cell lines TCL-02 DK1, 30 donors, hit criteria SI>=2, CPM>=1000; for Proliferation strength (TCL-02 DK1): T cell lines TCL-02 DK1, strength of response (average relative magnitude); for donor coverage of homologue peptide compared with native Phleum peptide / T cell coverage of modified peptide compared to the parent peptide: 2 μg/ml; for donor coverage of homologue peptide compared with native Phleum peptide: TCL-02 DK-2, 21 donors; for T cell coverage of modified peptide compared to the parent peptide: TCL03-DK1 and DK2, 27 donors; for average relative magnitude: reference peptides of WO2010/089554, proliferation only
Text: Isolated PBMCs (peripheral blood mononuclear cells) obtained from the donors described in Example 2 were CD8 depleted and the T cell lines were established by stimulating the cultures with nPhl p1, mix of nPhl p 2 and […] 5 and […] established for each of the donors tested by stimulating with the mixture of above listed allergens. Grass allergic donors were recruited (cohort DK1 including 30 grass allergic individuals, DK2 including 24 grass allergic individuals and US1 including 15 grass allergic individuals). PBMCs were isolated from freshly drawn heparinized blood by gradient centrifugation on lymphoprep (Nycomed, Norway), washed twice and re-suspended in RPMI 1640 medium with HEPES and ultraglutamine (Cambrex, Belgium) supplemented with 5% v/v human AB-serum (Cambrex, Belgium), 100 units/ml penicillin, and 0.1 mg/ml streptomycin (Sigma, St Louis, USA) (referred to as 5% AB-medium). Aliquots of the isolated PBMCs were frozen and were thawed later to stimulate the T cell lines. Additionally either fresh or thawed PBMCs were used as antigen presenting cells (APCs) in the proliferation assay as described later. In some cases the PBMCs were freezed at this stage and thawed later on to continue the experiment as described in the following. The isolated PBMCs (fresh or thawed) were CD8 depleted by MACS magnetic depletion according to the manufacturer's instructions (Miltenyi Biotec, Bergisch Gladbach, Germany). On day 0 the CD8-depleted PBMCs (2×10^6/ml) were stimulated in 1 ml bulk cultures in AB medium in 24 well plates (Nunc, Denmark) with the mixture of natural allergens: nPhl p 1 (0.5 μg/ml), mix of […]). […] On day 14 cells were harvested to obtain T cell line generation 01 (referred to as TCL01). Restimulation of T cell lines were performed in AB-medium with the thawed autologous PBMCs (10^6/well, irradiated 2500 Rad), the above mixture of natural allergens (concentration as mentioned above), and PHA-P (0.5 μg/ml, Difco, Detroit, Mich., USA). rIL-2 was added at day 17, 18 and 19. On day 24 cells were harvested to obtain T cell line generation 02 (referred as TCL02). T cells were isolated, washed, counted and used for T cell proliferation assay as described later. Remaining cells were frozen for later thawing and re-stimulations. The T cell line generation 2 (TCL02) were thawed and were re-stimulated with allogeneic Epstein Bar Virus transformed lymphoblastoid cell lines (EBV) B cells (JY cells, 10^5/well, irradiated 3500 Rad), allogeneic PBMCs (10^6/well, irradiated 2500 Rad), and 0.5 μg/ml PHA-P and subsequent addition of rIL-2 at days 3-5 to generate T cell line generation 03 (referred to as TCL03). […] To summarize ELISpot experiments were carried out at day 14 (with TCL01) and proliferation assay on either day 24 (with TCL02) or at day 34 (with TCL03). […] To ensure that all T cell epitopes regions from the major and intermediate grass allergens of the grass were identified T cell screening was carried out with either overlapping peptides or selected peptides. […] These were overlapping 20-mer peptides spanning the entire full length amino acid sequence of […] and selected high binder peptides from Phl p 4 were tested. Additionally 21, 15 mer peptides were tested which were derived from various group 1 and 5 allergens. Also, 67 peptides from homologous grass allergens were tested. Finally some reference peptides and mixes thereof were also tested. The 15-mer peptides were selected on the basis of predicted and measured promiscuous HLA binding and of sequence homology between known proteins sequences from the relevant pooideae grasses and the Bermuda grass. […] To get comprehensive data from all the donors the peptides were tested in both Fluorospot/Elispot (day 14, TCL01) and proliferation (day 24, TCL02).

Row | Compound | donor coverage of homologue peptide compared with native Phleum peptide | also measured
1 | CC[C@H](C)[C@H](NC(=O)[C@H](C)NC(=O)[C@H](CCCCN)NC(=O)[C@@H](NC(=O)[C@H](CC(C)C)NC(=O)[C@H](C)NC(=O)[C@H](C)NC(=O)[C@H](CCC(=O)O)NC(=O)[C@H](Cc1ccccc1)NC(=O)[C@@H](NC(=O)[C@H](C)NC(=O)[C@H](Cc1ccc(O)cc1)NC(=O)[C@H](CCCCN)NC(=O)[C@@H](NC(=O)[C@H](CCC(=O)O)NC(=O)[C@@H]1CCCN1C(=O)[C@@H](N)CCCCN)C(C)C)C(C)C)[C@@H](C)O)C(=O)N[C@H](C(=O)O)[C@@H](C)O [compound 242] |  | Proliferation % donor coverage (TCL-02 DK1): 48.28%; Proliferation strength (TCL-02 DK1): 7.20
2 | CC[C@H](C)[C@H](NC(=O)[C@H](CCCCN)NC(=O)[C@H](CCC(=O)O)NC(=O)[C@@H](NC(=O)[C@H](CC(C)C)NC(=O)[C@H](CCCCN)NC(=O)[C@H](CCC(N)=O)NC(=O)[C@@H](N)CCC(=O)O)[C@@H](C)CC)C(=O)N[C@@H](CC(N)=O)C(=O)N[C@@H](C)C(=O)NCC(=O)N[C@@H](Cc1ccccc1)C(=O)N[C@@H](CCCCN)C(=O)N[C@@H](C)C(=O)N[C@@H](C)C(=O)N[C@H](C(=O)N[C@@H](C)C(=O)N[C@@H](C)C(=O)N[C@@H](C)C(=O)N[C@@H](C)C(=O)O)C(C)C [compound 341] | better donor coverage than the native peptides | 
3 | CC[C@H](C)[C@H](NC(=O)[C@@H](NC(=O)[C@H](CCCNC(=N)N)NC(=O)[C@H](CC(C)C)NC(=O)[C@H](C)NC(=O)[C@H](CCC(=O)O)NC(=O)[C@@H](NC(=O)[C@H](CC(C)C)NC(=O)[C@@H](NC(=O)[C@H](C)NC(=O)[C@@H](NC(=O)[C@H](Cc1ccc(O)cc1)NC(=O)[C@H](C)NC(=O)[C@H](CC(=O)O)NC(=O)[C@H](Cc1ccc(O)cc1)NC(=O)[C@H](CCCCN)NC(=O)[C@H](C)NC(=O)[C@@H](N)CCC(=O)O)C(C)C)[C@@H](C)O)[C@@H](C)O)C(C)C)C(=O)N[C@@H](C)C(=O)NCC(=O)O [compound 345] | comparable donor coverage | 
4 | CC(C)[C@H](NC(=O)[C@@H](NC(=O)[C@H](Cc1ccccc1)NC(=O)[C@H](CCCCN)NC(=O)[C@H](CC(=O)O)NC(=O)[C@H](CC(N)=O)NC(=O)[C@H](C)NC(=O)[C@@H]1CCCN1C(=O)[C@H](C)NC(=O)[C@H](C)NC(=O)[C@H](CC(N)=O)NC(=O)[C@H](C)NC(=O)[C@H](C)NC(=O)[C@@H](NC(=O)[C@H](C)NC(=O)[C@H](C)NC(=O)[C@@H](NC(=O)[C@@H](N)CCCNC(=N)N)[C@@H](C)O)[C@@H](C)O)[C@@H](C)O)C(=O)N[C@@H](Cc1ccccc1)C(=O)N[C@@H](CCC(=O)O)C(=O)O [compound 348] | comparable donor coverage | 
5 | CC[C@H](C)[C@H](NC(=O)[C@H](Cc1ccccc1)NC(=O)[C@H](C)NC(=O)[C@H](CC(=O)O)NC(=O)[C@H](Cc1ccc(O)cc1)NC(=O)[C@H](CCCCN)NC(=O)[C@H](C)NC(=O)[C@@H](N)CCC(=O)O)C(=O)N[C@@H](C)C(=O)N[C@@H](C)C(=O)N[C@@H](CC(C)C)C(=O)N[C@H](C(=O)N[C@@H](CCC(=O)O)C(=O)N[C@@H](C)C(=O)N[C@@H](CC(C)C)C(=O)N[C@@H](CCCNC(=N)N)C(=O)N[C@H](C(=O)N[C@H](C(=O)N[C@@H](C)C(=O)NCC(=O)O)[C@@H](C)CC)C(C)C)[C@@H](C)O [compound 358] | comparable donor coverage | 
6 | APEVKYAVFEAGLTKAITAM-OH [compound 365] | loose some of the donor coverage | 
7 | ASRRPWWASVPPADKFKTFA-OH [compound 356] | loose some of the donor coverage | 
8 | Ac-WGAIWRIDTPDKLTGPFTVR-NH2 [compound 259] |  | T cell coverage of modified peptide compared to the parent peptide: markedly increased T cell coverage
9 | DKYKTFVETFGTATNKAFVE-OH [compound 343] | better donor coverage than the native peptides | 
10 | FIPMKSSWGA-OH [compound 135] |  | Proliferation % donor coverage (TCL-02 DK1): 13.79%; Proliferation strength (TCL-02 DK1): 1.50
11 | GFKAAVAAAAVVPPADKYKT-OH [compound 342] | better donor coverage than the native peptides | 
12 | GLGSRASYEIKSKEPVESSG-OH [compound 313] | low in donor coverage | 
13 | GRGSGSSFEIKSTKPESSSG-OH [compound 301] | comparable to the native peptides | 
14 | IDKVDAAYRTAATAANAAPA-OH [compound 347] | comparable donor coverage | 
15 | IRLTSEGGAHLVQDDVIPAN-OH [compound 323] | low in donor coverage | 
16 | KDKWIELKESWGAVWRIDTP-OH [compound 308] | comparable to the native peptides | 
17 | KFIPTLVAAVKQAYAAKQ-OH [compound 138] |  | Proliferation % donor coverage (TCL-02 DK1): 31.03%; Proliferation strength (TCL-02 DK1): 4.20
18 | KFIPTLVAAVKQAYAAKQAT-OH [compound 351] | loose some of the donor coverage | 

Row | Compound | donor coverage of homologue peptide compared with native Phleum peptide | also measured
19 | KKPEVKYAVFEAALTKAIT-OH [compound 143] |  | Proliferation % donor coverage (TCL-02 DK1): 48.28%; Proliferation strength (TCL-02 DK1): 7.50; average relative magnitude: around 8
20 | KSSWGAIWRIDPKKPLK-OH [compound 136] |  | Proliferation % donor coverage (TCL-02 DK1): 17.24%; Proliferation strength (TCL-02 DK1): 1.90
21 | KYDAYVATLTEALR-OH [compound 137] |  | Proliferation % donor coverage (TCL-02 DK1): 27.59%; Proliferation strength (TCL-02 DK1): 6.30
22 | LKKAVTAMSEAEK-OH [compound 139] |  | Proliferation % donor coverage (TCL-02 DK1): 20.69%; Proliferation strength (TCL-02 DK1): 2.80
23 | LVQDDVIPANWKPDTVYTSK-OH [compound 324] | low in donor coverage | 
24 | PEVKYAVFEAALTKAIT-OH [compound 140] |  | Proliferation % donor coverage (TCL-02 DK1): 55.17%; Proliferation strength (TCL-02 DK1): 8.20; average relative magnitude: around 8
25 | PTPRTPPLLPPPRARDKATL-OH [compound 355] | better donor coverage than the native peptides | 
26 | SDEFIPMKSSWGAIWRIDPK-OH [compound 321] | comparable to the native peptides | 
27 | SEFEDVIPEGWKADTSYSAK-OH [compound 311] | low in donor coverage | 
28 | SGKAFGAMAKKGQED-OH [compound 134, SGKAFGAMAKKGQED] |  | Proliferation % donor coverage (TCL-02 DK1): 27.59%; Proliferation strength (TCL-02 DK1): 4.00
29 | SLGAAYDSYKFIPTLVAAVK-OH [compound 350] | loose some of the donor coverage | 
30 | TAATPATPATPATPAAVPSG [compound 340] | better donor coverage than the native peptides | 
31 | VRYTTEGGTKSEFEDVIPEG-OH [compound 310] | low in donor coverage | 
32 | WGAIWRIDPKKPLKGPFSIR-OH [compound 322] | not recognized by the T cell lines | 
33 | WGAIWRIDTPDKLTGPFTVR-NH2 [compound 258] |  | T cell coverage of modified peptide compared to the parent peptide: markedly increased T cell coverage
34 | WGAVWRIDTPDKLTGPFTVR-OH [compound 309] | low in donor coverage | 
35 | YHFDLSGHAFGSMAKKGEEQ-OH [compound 303] | comparable to the native peptides | 
36 | YHFDLSGKAFGAMAKKGQED-OH [compound 316] | comparable to the native peptides | 
